One data set deals with Phytophthora infestans. Format: in vivo. Particulars: 500 ppm of active ingredient; tomato, preventive; evaluated 7 days after inoculation; 100% = no disease.
Data set [1] in a line: Measurement of logP values by HPLC on reversed phase columns (EEC directive 79/831 Annex V.A8). Format: physicochemical. As to conditions: HPLC; for Log P [I1] main isomer / Log P [I2] minor isomer / Log P (two values printed, isomers not assigned): pH 2.7, 0.1% formic acid; for Log P (two values printed, isomers not assigned): two values without isomer tag; for Log P: pH 2.7, 0.1% formic acid in water / acetonitrile, single value.

The text below walks through data of US20130116287A1 (priority 2010, published 2013).

Where “and” joins values, the source holds several entries; their conditions need not be identical. Equal values may be shown once.

Regarding `Cc1snnc1C(=NOCc1csc(NC(=O)C(F)(F)Oc2ccccc2)n1)c1ccccc1` (mixture of isomers) [Example 1], the efficacy with Phytophthora infestans worked out at 100%. In data set [1], the “Log P [I1] main isomer” value is 4.25 and the “Log P [I2] minor isomer” value was found to be 4.15.

In turn, `Cc1snnc1C(=NOCc1csc(NC(=O)CSc2ccccc2)n1)c1ccccc1` (mixture of isomers) [Example 5] had an efficacy with Phytophthora infestans of 95%. In data set [1], the “Log P [I1] main isomer” value is listed as 3.89 and the “Log P [I2] minor isomer” value worked out at 3.78.

In the data set on Phytophthora infestans, `Cc1snnc1C(=NOCc1cccc(NC(=O)COc2ccccc2)n1)c1ccccc1` (mixture of isomers) [Example 9] showed an efficacy of 95%. In data set [1], the “Log P [I1] main isomer” value was 4.14 and the “Log P [I2] minor isomer” value is 4.01.

`CC(=O)OCC(=O)Nc1nc(CON=C(c2ccccc2)c2nnsc2C)cs1` (mixture of isomers) [Example 11]: in data set [1], the “Log P [I1] main isomer” value was 2.78 and the “Log P [I2] minor isomer” value is 2.68.

Take `CC(=O)OCC(=O)Nc1cccc(CON=C(c2ccccc2)c2nnsc2C)n1` (mixture of isomers) [Example 12]: in the data set with Phytophthora infestans, the efficacy amounted to 70%. Besides, in data set [1], the “Log P [I1] main isomer” value worked out at 2.93 and the “Log P [I2] minor isomer” value is 2.82.

In turn, `Cc1snnc1C(=NOCc1cccc(NC(=O)COCc2ccccc2)n1)c1ccccc1` (mixture of isomers) [Example 29] yielded an efficacy with Phytophthora infestans of 93%. Also, in data set [1], the “Log P [I1] main isomer” value is recorded as 4.34.

`Cc1snnc1C(=NOCc1csc(NC(=O)COc2ccccc2Cl)n1)c1ccccc1` (mixture of isomers) [Example 31]: the efficacy with Phytophthora infestans worked out at 95%. In data set [1], the “Log P [I1] main isomer” value turned out to be 4.19 and the “Log P [I2] minor isomer” value is 4.06.

In turn, `Cc1snnc1C(=NOCc1cccc(NC(=O)COc2ccccc2Cl)n1)c1ccccc1` (mixture of isomers) [Example 32] came in with an efficacy in the data set on Phytophthora infestans of 93%. For the same compound, in data set [1], the “Log P [I1] main isomer” value was 4.61 and the “Log P [I2] minor isomer” value was found to be 4.49.

`Cc1snnc1C(=NOCc1csc(NC(=O)COc2ccc(Cl)cc2)n1)c1ccccc1` (mixture of isomers) [Example 33] gave an efficacy with Phytophthora infestans of 100%. In addition, in data set [1], the “Log P (two values printed, isomers not assigned)” value turned out to be 4.09.

With `Cc1snnc1C(=NOCc1cccc(NC(=O)COc2ccc(Cl)cc2)n1)c1ccccc1` (mixture of isomers) [Example 35], the efficacy with Phytophthora infestans came out at 95%. Further, in data set [1], the “Log P [I1] main isomer” value turned out to be 4.51.

As for `Cc1snnc1C(=NOCc1csc(NC(=O)COc2cccc(Cl)c2)n1)c1ccccc1` (mixture of isomers) [Example 41], the efficacy in the data set on Phytophthora infestans turned out to be 100%. In data set [1], the “Log P (two values printed, isomers not assigned)” value is 4.24 and 4.11.

For the compound `Cc1snnc1C(=NOCc1cccc(NC(=O)COc2cccc(Cl)c2)n1)c1ccccc1` (mixture of isomers) [Example 43], in data set [1], the “Log P [I1] main isomer” value stood at 4.53 and the “Log P [I2] minor isomer” value is given as 4.41.

`COc1ccccc1OCC(=O)Nc1cccc(CON=C(c2ccccc2)c2nnsc2C)n1` (mixture of isomers) [Example 58] yielded an efficacy with Phytophthora infestans of 95%. For the same compound, in data set [1], the “Log P [I1] main isomer” value worked out at 4.24 and the “Log P [I2] minor isomer” value came to 4.11.

Compound `CC(=O)OC(C)(C)C(=O)Nc1nc(CON=C(c2ccccc2)c2nnsc2C)cs1` (mixture of isomers) [Example 100] yielded an efficacy with Phytophthora infestans of 95%. Moreover, in data set [1], the “Log P [I1] main isomer” value was 3.35 and the “Log P [I2] minor isomer” value stood at 3.25.

Compound `CC(=O)OC(C)(C)C(=O)Nc1cccc(CON=C(c2ccccc2)c2nnsc2C)n1` (mixture of isomers) [Example 101] returned an efficacy in the data set with Phytophthora infestans of 95%. Also, in data set [1], the “Log P [I1] main isomer” value is listed as 3.48 and the “Log P [I2] minor isomer” value was 3.35.

For the compound `Cc1snnc1C(=NOCc1cccc(NC(=O)COCCC(C)C)n1)c1ccccc1` [Example 4], the efficacy with Phytophthora infestans worked out at 93%.

The term Log P denotes a log measure of how a compound divides between an organic and an aqueous phase. Read a high Log P as higher lipophilicity. Regarding `Cc1snnc1C(=NOCc1cccc(NC(=O)COc2ccccc2)n1)c1ccccc1` [Example 10], the efficacy in the data set with Phytophthora infestans was determined as 98%. Besides, the log partition coefficient (Log P) in data set [1] was 4.11.

With `C#CCOC(C)C(=O)Nc1nc(CON=C(c2ccccc2)c2nnsc2C)cs1` (centres unmarked) [Example 13], the efficacy with Phytophthora infestans worked out at 100%. Besides, the “Log P” value in data set [1] worked out at 3.29.

Compound `C#CCOC(C)C(=O)Nc1cccc(CON=C(c2ccccc2)c2nnsc2C)n1` (centres unmarked) [Example 14] had an efficacy in the data set with Phytophthora infestans of 100%. In addition, in data set [1], the log partition coefficient (Log P) stood at 3.58.

Take `Cc1snnc1C(=NOCc1cccc(NC(=O)C(C)Oc2ccccc2)n1)c1ccccc1` (centres unmarked) [Example 16]: in the data set on Phytophthora infestans, the efficacy came to 100%. Further, in data set [1], the “Log P” value turned out to be 4.41.

With `Cc1snnc1C(=NOCc1csc(NC(=O)COCC2CC2)n1)c1ccccc1` [Example 17], the efficacy in the data set with Phytophthora infestans came to 97%. Besides, the “Log P” value in data set [1] is listed as 3.53.

Consider `Cc1snnc1C(=NOCc1cccc(NC(=O)COCC2CC2)n1)c1ccccc1` [Example 18], for which the efficacy in the data set with Phytophthora infestans is given as 100%. Further, the log partition coefficient (Log P) in data set [1] is given as 3.92.

`C=CCCOC(C)C(=O)Nc1nc(CON=C(c2ccccc2)c2nnsc2C)cs1` (centres unmarked) [Example 19]: the efficacy in the data set with Phytophthora infestans is reported as 98%. Besides, in data set [1], the “Log P” value was 3.99.

For the compound `C=CCCOC(C)C(=O)Nc1cccc(CON=C(c2ccccc2)c2nnsc2C)n1` (centres unmarked) [Example 20], the efficacy with Phytophthora infestans is 95%. Besides, the log partition coefficient (Log P) in data set [1] came out at 4.36.

Regarding `CCCCOCC(=O)Nc1nc(CON=C(c2ccccc2)c2nnsc2C)cs1` [Example 21], the efficacy with Phytophthora infestans was found to be 93%. The lipophilicity (Log P) in data set [1] worked out at 3.99.

Turning to `CCCCOCC(=O)Nc1cccc(CON=C(c2ccccc2)c2nnsc2C)n1` [Example 22], the efficacy in the data set on Phytophthora infestans stood at 95%. Further, the lipophilicity (Log P) in data set [1] is recorded as 4.41.

Consider `Cc1snnc1C(=NOCc1cccc(NC(=O)COC2CCCC2)n1)c1ccccc1` [Example 24], for which, in the data set on Phytophthora infestans, the efficacy was 95%. Further, the log partition coefficient (Log P) in data set [1] turned out to be 4.51.

With `C=CCOC(C)C(=O)Nc1cccc(CON=C(c2ccccc2)c2nnsc2C)n1` (centres unmarked) [Example 26], the efficacy in the data set on Phytophthora infestans worked out at 95%. For the same compound, in data set [1], the log partition coefficient (Log P) is 3.94.

In turn, `Cc1snnc1C(=NOCc1cccc(NC(=O)COCc2ccccc2)n1)c1ccccc1` [Example 30] displayed an efficacy in the data set with Phytophthora infestans of 95%. Further, in data set [1], the “Log P” value amounted to 4.29.

Consider `Cc1snnc1C(=NOCc1csc(NC(=O)COc2ccc(Cl)cc2)n1)c1ccccc1` [Example 34], for which the efficacy in the data set with Phytophthora infestans turned out to be 100%. Moreover, the “Log P” value in data set [1] amounted to 4.19.

For the compound `Cc1snnc1C(=NOCc1cccc(NC(=O)COc2ccc(Cl)cc2)n1)c1ccccc1` [Example 36], the efficacy with Phytophthora infestans is reported as 100%. In addition, the log partition coefficient (Log P) in data set [1] came out at 4.49.

`C=CCCOCC(=O)Nc1nc(CON=C(c2ccccc2)c2nnsc2C)cs1` [Example 37] displayed an efficacy with Phytophthora infestans of 98%. In data set [1], the “Log P” value stood at 3.68.

On to `C=CCCOCC(=O)Nc1cccc(CON=C(c2ccccc2)c2nnsc2C)n1` [Example 38], for which, in the data set on Phytophthora infestans, the efficacy is on record as 100%. The “Log P” value in data set [1] stood at 3.99.

`Cc1snnc1C(=NOCc1cccc(NC(=O)C(C)OCC2CC2)n1)c1ccccc1` (centres unmarked) [Example 40] yielded an efficacy with Phytophthora infestans of 97%.

`Cc1snnc1C(=NOCc1csc(NC(=O)COc2cccc(Cl)c2)n1)c1ccccc1` [Example 42] had an efficacy with Phytophthora infestans of 100%. Further, in data set [1], the “Log P” value came out at 4.19.

`Cc1snnc1C(=NOCc1csc(NC(=O)COc2ccc(I)cc2)n1)c1ccccc1` [Example 45] had an efficacy with Phytophthora infestans of 100%. For the same compound, the lipophilicity (Log P) in data set [1] is listed as 4.44.

With `Cc1snnc1C(=NOCc1cccc(NC(=O)COc2ccc(I)cc2)n1)c1ccccc1` [Example 46], the efficacy in the data set on Phytophthora infestans was 100%.

Compound `C#CCOCC(=O)Nc1nc(CON=C(c2ccccc2)c2nnsc2C)cs1` [Example 47] registered an efficacy in the data set with Phytophthora infestans of 95%. For the same compound, the log partition coefficient (Log P) in data set [1] came out at 3.04.

Turning to `C#CCOCC(=O)Nc1cccc(CON=C(c2ccccc2)c2nnsc2C)n1` [Example 48], the efficacy in the data set with Phytophthora infestans was 100%. In addition, in data set [1], the lipophilicity (Log P) was determined as 3.29.

Turning to `Cc1snnc1C(=NOCc1csc(NC(=O)C(C)OCCC(C)C)n1)c1ccccc1` (centres unmarked) [Example 49], the efficacy in the data set on Phytophthora infestans was 98%. For the same compound, in data set [1], the “Log P” value is on record as 4.68.

Take `Cc1snnc1C(=NOCc1cccc(NC(=O)C(C)OCCC(C)C)n1)c1ccccc1` (centres unmarked) [Example 50]: the efficacy in the data set on Phytophthora infestans came out at 97%. In addition, in data set [1], the lipophilicity (Log P) stood at 5.11.

For `Cc1snnc1C(=NOCc1csc(NC(=O)CSCCc2ccccc2)n1)c1ccccc1` [Example 51], the log partition coefficient (Log P) in data set [1] is 4.24.

In the case of `Cc1snnc1C(=NOCc1cccc(NC(=O)CSCCc2ccccc2)n1)c1ccccc1` [Example 52], in the data set with Phytophthora infestans, the efficacy is recorded as 97%. In addition, in data set [1], the log partition coefficient (Log P) was found to be 4.53.

On to `Cc1snnc1C(=NOCc1cccc(NC(=O)COCC2CCC2)n1)c1ccccc1` [Example 54], for which, in the data set with Phytophthora infestans, the efficacy is given as 97%. For the same compound, in data set [1], the “Log P” value is on record as 4.54.

In turn, `Cc1snnc1C(=NOCc1csc(NC(=O)C(C)OC2CCCCC2)n1)c1ccccc1` (centres unmarked) [Example 55] registered an efficacy in the data set with Phytophthora infestans of 98%. Moreover, the log partition coefficient (Log P) in data set [1] is reported as 4.76.

The compound `Cc1snnc1C(=NOCc1cccc(NC(=O)C(C)OC2CCCCC2)n1)c1ccccc1` (centres unmarked) [Example 56] registered an efficacy in the data set on Phytophthora infestans of 98%. Also, the “Log P” value in data set [1] amounted to 5.22.

In the data set with Phytophthora infestans, `Cc1snnc1C(=NOCc1cccc(NC(=O)COC2CCCCC2)n1)c1ccccc1` [Example 60] registered an efficacy of 95%. Moreover, the “Log P” value in data set [1] came to 4.91.

`Cc1snnc1C(=NOCc1cccc(NC(=O)CSCCC(C)C)n1)c1ccccc1` [Example 68] gave an efficacy in the data set on Phytophthora infestans of 95%.

In the data set on Phytophthora infestans, `Cc1snnc1C(=NOCc1cccc(NC(=O)C(C)Oc2ccc(F)cc2)n1)c1ccccc1` (centres unmarked) [Example 96] registered an efficacy of 97%.

On to `CCCCOC(C)C(=O)Nc1cccc(CON=C(c2ccccc2)c2nnsc2C)n1` (centres unmarked) [Example 97], for which, in the data set on Phytophthora infestans, the efficacy amounted to 97%.

Regarding `Cc1snnc1C(=NOCc1csc(NC(=O)C(C)OCC2CCC2)n1)c1ccccc1` (centres unmarked) [Example 110], the “Log P” value in data set [1] came to 4.49.

For the compound `Cc1snnc1C(=NOCc1cccc(NC(=O)C(C)OCC2CCC2)n1)c1ccccc1` (centres unmarked) [Example 111], in data set [1], the “Log P” value is given as 4.93.
